Among the test systems are A498; ACHN; BT-549; DU-145; HOP-92; HT-29; Hs-578T; IGROV-1; K562; MDA-MB-435; MDA-N; MOLT-4; RPMI-8226; SF-268; SK-MEL-5; SW-620; U-251; NCI-H522; OVCAR-3.
What all share (test): DTP human tumour cell line panel, 48 h

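Five compound concentrations were applied to cells in 96-well plates for 48 hours; endpoints were derived by simple linear interpolation of the resulting dose-response curve. GI50 = concentration required for 50% inhibition of growth.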 Calls of active or inactive are those of the source. Rule as the data show it: active = GI50 up to about 1.1 µM and inactive = higher.

`O=C1N2CCN=C2c2ccccc2C1(O)c1ccccc1` (centres undefined): the GI50 in the assay with A498, in the assay on ACHN, in the assay on BT-549, in the assay on DU-145, in the assay with HOP-92 and in the assay with HT-29 was > 100 µM (inactive) in each case. The GI50 with Hs-578T, with IGROV-1, with K562, in the assay with MDA-MB-435, in the assay with MDA-N and in the assay on MOLT-4 was > 100 µM (inactive) in each case. The GI50 in the assay on RPMI-8226, with SF-268, in the assay on SK-MEL-5, with SW-620 and with U-251 was > 100 µM (inactive) in each case.

For the compound `CCCCCCCC/C=C\CCCCCCCCNc1ccn(C2OC(COP(=O)(O)OC3CC(n4cc(F)c(=O)[nH]c4=O)OC3CO)C(O)C2O)c(=O)n1` (centres undefined), the 50% growth inhibitory concentration (GI50) is 0.0177 µM (active) in the assay on ACHN; 20.9 µM (inactive) in the assay with BT-549; 0.159 µM (active) in the assay with DU-145; 7.93 µM (inactive) in the assay on HOP-92; 4.19 µM (inactive) in the assay on HT-29; > 100 µM (inactive) in the assay on Hs-578T. The GI50 in the assay with IGROV-1 was > 26.7 µM (inactive); with K562, 2.52 µM (inactive); in the assay with MDA-MB-435 it was 40.8 µM (inactive); with MDA-N, > 55.1 µM (inactive); in the assay with MOLT-4, 0.471 µM (active); in the assay on NCI-H522, > 53.8 µM (inactive). Besides, the GI50 was > 87.5 µM (inactive) with OVCAR-3; 0.0509 µM (active) in the assay with RPMI-8226; < 0.0292 µM (active) in the assay with SF-268; 10.4 µM (inactive) with SK-MEL-5; > 41.3 µM (inactive) in the assay with SW-620; 2.89 µM (inactive) in the assay with U-251.

Consider `COc1ccc(N2C(=O)C3CC4=CC(=O)C[C@H]4[C@H]32)cc1` (some centres undefined), for which the GI50 with A498 is > 100 µM (inactive); with ACHN, 53.7 µM (inactive); with BT-549, 14.9 µM (inactive); with DU-145, 75.9 µM (inactive); in the assay on Hs-578T, > 100 µM (inactive); with K562 it was 64.9 µM (inactive). For the same compound, the GI50 was 22.9 µM (inactive) in the assay with MDA-MB-435; 18.5 µM (inactive) in the assay on MDA-N; > 100 µM (inactive) with MOLT-4; 57.7 µM (inactive) in the assay on OVCAR-3; 59.8 µM (inactive) in the assay on RPMI-8226; > 100 µM (inactive) in the assay on SF-268. For the same compound, the GI50 in the assay with SW-620 is 66.1 µM (inactive); in the assay with U-251, 67.9 µM (inactive).

For `COc1ccc(N2C(=O)C3c4[nH]c5ccc(OCc6ccccc6)cc5c4C4CCC(C(C)(C)C)CC4C3C2=O)cc1` (centres undefined), the GI50 was > 100 µM (inactive) with A498; > 100 µM (inactive) in the assay with ACHN; > 100 µM (inactive) with BT-549; > 100 µM (inactive) with DU-145; > 100 µM (inactive) in the assay on HT-29; 54.2 µM (inactive) in the assay on Hs-578T. Further, the GI50 in the assay with IGROV-1 was > 100 µM (inactive); in the assay with K562 it was > 100 µM (inactive); with MDA-MB-435, 97.7 µM (inactive); in the assay on MDA-N, > 100 µM (inactive); in the assay with MOLT-4 it was > 100 µM (inactive); in the assay on NCI-H522, > 100 µM (inactive). Further, the GI50 in the assay with OVCAR-3 was 57.5 µM (inactive); in the assay on RPMI-8226, > 100 µM (inactive); in the assay with SF-268, > 100 µM (inactive); in the assay on SK-MEL-5 it was > 100 µM (inactive); with SW-620 it was 94.6 µM (inactive); in the assay on U-251, 27.1 µM (inactive).

Regarding `CN1CCN(c2ccc3nc(C4=C(O)C(=O)c5c(nc(CCl)n5C)C4=O)[nH]c3n2)CC1`, the GI50 is 11.5 µM (inactive) in the assay with A498; 10.3 µM (inactive) with ACHN; 9.79 µM (inactive) in the assay on BT-549; 10.1 µM (inactive) with DU-145; 11.6 µM (inactive) with HT-29; 18.7 µM (inactive) with Hs-578T. For the same compound, the GI50 in the assay on IGROV-1 was 8.38 µM (inactive); in the assay on K562, 24.2 µM (inactive); in the assay on MDA-MB-435, 9.86 µM (inactive); in the assay on MDA-N it was 9.75 µM (inactive); in the assay with MOLT-4, 21.8 µM (inactive); in the assay on NCI-H522, 1.56 µM (inactive). The GI50 in the assay with OVCAR-3 is 10.4 µM (inactive); with RPMI-8226, 26 µM (inactive); with SF-268 it was 14.9 µM (inactive); with SK-MEL-5 it was 24.2 µM (inactive); with SW-620, 20 µM (inactive); with U-251, 8.77 µM (inactive).

As for `N#Cc1c(NC(=S)Nc2ccc(Cl)cc2)sc2c1CCN(N1CCc3c(sc(NC(=S)Nc4ccc(Cl)cc4)c3C#N)C1)C2`, the GI50 in the assay on A498 is 15.7 µM (inactive); in the assay on ACHN, 12.7 µM (inactive); in the assay on BT-549 it was 36.6 µM (inactive); in the assay with DU-145 it was 37.8 µM (inactive); in the assay with HT-29, 13.6 µM (inactive); in the assay on Hs-578T it was 44.8 µM (inactive). In addition, the GI50 is 16.1 µM (inactive) with IGROV-1; 22.4 µM (inactive) in the assay on K562; 27.1 µM (inactive) with MDA-MB-435; 28.7 µM (inactive) with MDA-N; 48.1 µM (inactive) with MOLT-4; 18.2 µM (inactive) with NCI-H522. Also, the GI50 in the assay with OVCAR-3 was 74.5 µM (inactive); in the assay on RPMI-8226, > 100 µM (inactive); in the assay with SF-268, 38.9 µM (inactive); in the assay on SK-MEL-5, 10.5 µM (inactive); with SW-620, 30.1 µM (inactive); in the assay on U-251, 29.2 µM (inactive).

Consider `c1ccc([P+](c2ccccc2)(c2ccccc2)C2c3ccccc3-c3ccccc32)cc1`, for which the GI50 in the assay with A498 was 1.75 µM (inactive); in the assay with ACHN it was 2.35 µM (inactive); in the assay with BT-549 it was 2.94 µM (inactive); in the assay on DU-145 it was 2.87 µM (inactive); in the assay with HT-29, 0.74 µM (active); with Hs-578T, 2.21 µM (inactive). In addition, the GI50 with IGROV-1 was 1.98 µM (inactive); in the assay with K562, 1.9 µM (inactive); in the assay with MDA-MB-435 it was 0.655 µM (active); in the assay with MDA-N, 0.895 µM (active); with MOLT-4, 1.67 µM (inactive); in the assay with NCI-H522, 2.19 µM (inactive). Further, the GI50 is 1.87 µM (inactive) in the assay on OVCAR-3; 1.35 µM (inactive) with RPMI-8226; 2.77 µM (inactive) in the assay on SF-268; 1.77 µM (inactive) with SK-MEL-5; 3.08 µM (inactive) in the assay on SW-620; 1.57 µM (inactive) in the assay with U-251.

Regarding `Clc1ccc(-c2cc3nc4ccccc4nc3o2)cc1`, the GI50 in the assay with A498 is > 100 µM (inactive); in the assay with ACHN, 25.4 µM (inactive); with BT-549, 35 µM (inactive); in the assay with DU-145 it was > 100 µM (inactive); with HOP-92, 47.2 µM (inactive); in the assay on HT-29, > 100 µM (inactive). The GI50 in the assay with Hs-578T is 15.7 µM (inactive); in the assay with IGROV-1, 62.8 µM (inactive); in the assay with K562, > 100 µM (inactive); with MDA-MB-435, > 100 µM (inactive); with MDA-N, > 100 µM (inactive); in the assay with MOLT-4 it was > 100 µM (inactive). The GI50 in the assay on OVCAR-3 is > 100 µM (inactive); in the assay with RPMI-8226 it was > 100 µM (inactive); in the assay on SF-268, 63.8 µM (inactive); in the assay with SK-MEL-5 it was > 100 µM (inactive); with SW-620 it was > 100 µM (inactive); in the assay with U-251 it was 29.9 µM (inactive).

One may read the GI50 as the concentration at which growth is held to half of that of the control.

(Values after ChEMBL document CHEMBL1201862, “PubChem BioAssay data set” (2004).)
